Data as given in the NIST ThermoML archive (doi:10.1016/j.jct.2008.05.005).

Test: xn = mol fraction of the nth substance listed
Conditions: Liquid, Vibrating tube method

CCCCn1cc[n+](C)c1.F[B-](F)(F)F [1-butyl-3-methylimidazolium tetrafluoroborate] + CO
Conditions | mass density [kg/m3]
348.15 K, 20140 kPa, x1 = 0.9102 | 1177.87
348.15 K, 20370 kPa, x1 = 0.1302 | 949.49
348.15 K, 20420 kPa, x1 = 0.2626 | 1040.92
348.15 K, 20440 kPa, x1 = 0.0087 | 779.62
348.15 K, 25180 kPa, x1 = 0.0433 | 846.4
348.15 K, 25270 kPa, x1 = 0.1302 | 953.3
348.15 K, 25310 kPa, x1 = 0.2626 | 1044.36
348.15 K, 25310 kPa, x1 = 0.4988 | 1122.86
348.15 K, 25320 kPa, x1 = 0.0087 | 784.47
348.15 K, 25620 kPa, x1 = 0.7501 | 1164.19
348.15 K, 25620 kPa, x1 = 0.9102 | 1180.73
348.15 K, 30070 kPa, x1 = 0.7501 | 1166.56
348.15 K, 30090 kPa, x1 = 0.4988 | 1125.66
348.15 K, 30140 kPa, x1 = 0.9102 | 1183.03
348.15 K, 30150 kPa, x1 = 0.0087 | 789.02
348.15 K, 30160 kPa, x1 = 0.0433 | 850.67
348.15 K, 30210 kPa, x1 = 0.2626 | 1047.7
348.15 K, 30560 kPa, x1 = 0.1302 | 957.16
348.15 K, 35010 kPa, x1 = 0.7501 | 1169.13
348.15 K, 35080 kPa, x1 = 0.2626 | 1050.92
348.15 K, 35120 kPa, x1 = 0.0087 | 793.42
348.15 K, 35260 kPa, x1 = 0.4988 | 1128.6
348.15 K, 35420 kPa, x1 = 0.1302 | 960.46
348.15 K, 35740 kPa, x1 = 0.0433 | 855.14
348.15 K, 35740 kPa, x1 = 0.9102 | 1185.8
348.15 K, 39640 kPa, x1 = 0.0087 | 797.19
348.15 K, 39720 kPa, x1 = 0.1302 | 963.19
348.15 K, 39920 kPa, x1 = 0.2626 | 1054.02
348.15 K, 39920 kPa, x1 = 0.4988 | 1131.18
348.15 K, 39980 kPa, x1 = 0.9102 | 1187.84
348.15 K, 39990 kPa, x1 = 0.7501 | 1171.65
348.15 K, 40010 kPa, x1 = 0.0433 | 858.32
373.15 K, 620 kPa, x1 = 0.0433 | 797.86
373.15 K, 620 kPa, x1 = 0.9102 | 1149.53
373.15 K, 680 kPa, x1 = 0.0087 | 731.31
373.15 K, 840 kPa, x1 = 0.1302 | 910.67
373.15 K, 840 kPa, x1 = 0.7501 | 1131.82
373.15 K, 880 kPa, x1 = 0.4988 | 1088.22
373.15 K, 960 kPa, x1 = 0.2626 | 1006.13
373.15 K, 5010 kPa, x1 = 0.7501 | 1134.65
373.15 K, 5320 kPa, x1 = 0.2626 | 1009.96
373.15 K, 5410 kPa, x1 = 0.0087 | 738.04
373.15 K, 5410 kPa, x1 = 0.9102 | 1152.54
373.15 K, 5450 kPa, x1 = 0.1302 | 915.31
373.15 K, 5470 kPa, x1 = 0.4988 | 1091.64
373.15 K, 5500 kPa, x1 = 0.0433 | 804.09
373.15 K, 10030 kPa, x1 = 0.9102 | 1155.38
373.15 K, 10070 kPa, x1 = 0.2626 | 1014.1
373.15 K, 10080 kPa, x1 = 0.4988 | 1095
373.15 K, 10280 kPa, x1 = 0.1302 | 919.98
373.15 K, 10320 kPa, x1 = 0.7501 | 1138.17
373.15 K, 10390 kPa, x1 = 0.0087 | 744.76
373.15 K, 10780 kPa, x1 = 0.0433 | 810.45
373.15 K, 15090 kPa, x1 = 0.7501 | 1141.24
373.15 K, 15170 kPa, x1 = 0.1302 | 924.53
373.15 K, 15230 kPa, x1 = 0.2626 | 1018.44
373.15 K, 15390 kPa, x1 = 0.0433 | 815.67
373.15 K, 15430 kPa, x1 = 0.4988 | 1098.81
373.15 K, 15450 kPa, x1 = 0.0087 | 751.2
373.15 K, 15720 kPa, x1 = 0.9102 | 1158.79
373.15 K, 20090 kPa, x1 = 0.2626 | 1022.37
373.15 K, 20210 kPa, x1 = 0.0433 | 820.81
373.15 K, 20420 kPa, x1 = 0.1302 | 929.19
373.15 K, 20420 kPa, x1 = 0.7501 | 1144.57
373.15 K, 20580 kPa, x1 = 0.0087 | 757.35
373.15 K, 20610 kPa, x1 = 0.4988 | 1102.41
373.15 K, 20610 kPa, x1 = 0.9102 | 1161.64
373.15 K, 24990 kPa, x1 = 0.0433 | 825.57
373.15 K, 25080 kPa, x1 = 0.7501 | 1147.41
373.15 K, 25330 kPa, x1 = 0.1302 | 933.36
373.15 K, 25340 kPa, x1 = 0.2626 | 1026.45
373.15 K, 25340 kPa, x1 = 0.4988 | 1105.63
373.15 K, 25580 kPa, x1 = 0.0087 | 762.96
373.15 K, 25830 kPa, x1 = 0.9102 | 1164.62
373.15 K, 29810 kPa, x1 = 0.1302 | 936.98
373.15 K, 30080 kPa, x1 = 0.2626 | 1029.97
373.15 K, 30080 kPa, x1 = 0.4988 | 1108.78
373.15 K, 30140 kPa, x1 = 0.9102 | 1167.01
373.15 K, 30410 kPa, x1 = 0.7501 | 1150.55
373.15 K, 30550 kPa, x1 = 0.0433 | 830.7
373.15 K, 30780 kPa, x1 = 0.0087 | 768.4
373.15 K, 34970 kPa, x1 = 0.0433 | 834.46
373.15 K, 35040 kPa, x1 = 0.9102 | 1169.67
373.15 K, 35210 kPa, x1 = 0.7501 | 1153.29
373.15 K, 35560 kPa, x1 = 0.1302 | 941.4
373.15 K, 35620 kPa, x1 = 0.2626 | 1033.9
373.15 K, 35640 kPa, x1 = 0.4988 | 1112.39
373.15 K, 35780 kPa, x1 = 0.0087 | 773.25
373.15 K, 39510 kPa, x1 = 0.0087 | 776.62
373.15 K, 39910 kPa, x1 = 0.0433 | 838.34
373.15 K, 39940 kPa, x1 = 0.2626 | 1036.83
373.15 K, 39940 kPa, x1 = 0.9102 | 1172.26
373.15 K, 39970 kPa, x1 = 0.4988 | 1115.12
373.15 K, 39980 kPa, x1 = 0.7501 | 1155.94
373.15 K, 40050 kPa, x1 = 0.1302 | 944.67
398.15 K, 870 kPa, x1 = 0.0087 | 702.45
398.15 K, 980 kPa, x1 = 0.7501 | 1114.32
398.15 K, 990 kPa, x1 = 0.4988 | 1069.4
398.15 K, 1020 kPa, x1 = 0.2626 | 985.77
398.15 K, 1030 kPa, x1 = 0.9102 | 1132.67
398.15 K, 1250 kPa, x1 = 0.0433 | 772.27
398.15 K, 2310 kPa, x1 = 0.1302 | 891.44
398.15 K, 5010 kPa, x1 = 0.0087 | 709.59
398.15 K, 5060 kPa, x1 = 0.0433 | 778.08
398.15 K, 5060 kPa, x1 = 0.2626 | 989.1
398.15 K, 5080 kPa, x1 = 0.4988 | 1072.6
398.15 K, 5120 kPa, x1 = 0.1302 | 894.51
398.15 K, 5310 kPa, x1 = 0.7501 | 1117.54
398.15 K, 5410 kPa, x1 = 0.9102 | 1135.7
398.15 K, 10030 kPa, x1 = 0.0087 | 717.77
398.15 K, 10030 kPa, x1 = 0.1302 | 899.7
398.15 K, 10120 kPa, x1 = 0.2626 | 994.1
398.15 K, 10250 kPa, x1 = 0.9102 | 1138.98
398.15 K, 10410 kPa, x1 = 0.0433 | 785.75
398.15 K, 10410 kPa, x1 = 0.7501 | 1121.25
398.15 K, 10470 kPa, x1 = 0.4988 | 1077.23
398.15 K, 14950 kPa, x1 = 0.0087 | 725.27
398.15 K, 15020 kPa, x1 = 0.1302 | 904.75
398.15 K, 15070 kPa, x1 = 0.0433 | 791.97
398.15 K, 15210 kPa, x1 = 0.4988 | 1081.15
398.15 K, 15360 kPa, x1 = 0.9102 | 1142.35
398.15 K, 15450 kPa, x1 = 0.2626 | 999.14
398.15 K, 15960 kPa, x1 = 0.7501 | 1125.17
398.15 K, 20030 kPa, x1 = 0.4988 | 1085
398.15 K, 20060 kPa, x1 = 0.0087 | 732.52
398.15 K, 20060 kPa, x1 = 0.2626 | 1003.34
398.15 K, 20100 kPa, x1 = 0.1302 | 909.67
398.15 K, 20310 kPa, x1 = 0.0433 | 798.45
398.15 K, 20340 kPa, x1 = 0.7501 | 1128.18
398.15 K, 20470 kPa, x1 = 0.9102 | 1145.63
398.15 K, 24980 kPa, x1 = 0.0087 | 738.99
398.15 K, 25010 kPa, x1 = 0.9102 | 1148.46
398.15 K, 25060 kPa, x1 = 0.1302 | 914.25
398.15 K, 25080 kPa, x1 = 0.0433 | 803.88
398.15 K, 25320 kPa, x1 = 0.4988 | 1089.05
398.15 K, 25620 kPa, x1 = 0.2626 | 1008.18
398.15 K, 25720 kPa, x1 = 0.7501 | 1131.78
398.15 K, 29970 kPa, x1 = 0.1302 | 918.57
398.15 K, 30080 kPa, x1 = 0.7501 | 1134.62
398.15 K, 30090 kPa, x1 = 0.4988 | 1092.57
398.15 K, 30120 kPa, x1 = 0.0087 | 745.21
398.15 K, 30200 kPa, x1 = 0.0433 | 809.19
398.15 K, 30740 kPa, x1 = 0.2626 | 1012.44
398.15 K, 30890 kPa, x1 = 0.9102 | 1152.03
398.15 K, 34960 kPa, x1 = 0.0433 | 813.67
398.15 K, 35040 kPa, x1 = 0.4988 | 1096.06
398.15 K, 35060 kPa, x1 = 0.1302 | 922.81
398.15 K, 35210 kPa, x1 = 0.7501 | 1137.87
398.15 K, 35280 kPa, x1 = 0.9102 | 1154.61
398.15 K, 35310 kPa, x1 = 0.0087 | 750.93
398.15 K, 35620 kPa, x1 = 0.2626 | 1016.31
398.15 K, 39740 kPa, x1 = 0.1302 | 926.51
398.15 K, 39920 kPa, x1 = 0.9102 | 1157.27
398.15 K, 39940 kPa, x1 = 0.0433 | 817.88
398.15 K, 39940 kPa, x1 = 0.7501 | 1140.77
398.15 K, 39960 kPa, x1 = 0.4988 | 1099.38
398.15 K, 39970 kPa, x1 = 0.0087 | 755.59
398.15 K, 39980 kPa, x1 = 0.2626 | 1019.62
